According to patent US8754047B2, “Peptide compositions and methods of use” (The Research Foundation for the State University of New York, priority 2008, dated 2014):
Positions of bridges follow the written chain, without caps; N, C: chain ends. Residues, ends and D or L forms follow the SMILES beside them.

Tests used:
in vitro = settings: human, NCM460 normal colon epithelial cells
Method: After treatment with various concentrations (6.25 μM, 12.5 μM, 25 μM, 50 μM, 100 μM, or 200 μM) of test peptide for 24 h, cells were stained with MTT (3-(4,5-Dimethyl-2-thiazolyl)-2,5-diphenyl-2H-tetrazolium bromide, from Sigma-Aldrich) following the instructions of the manufacturer. […] Cells that are alive convert MTT into formazan in their active mitochondria and appear dark purple; dead cells are not stained by MTT and appear colorless.

[1] = test system: SW480 human colon cancer xenografts; assay: SW480 human colon cancer xenografts in nude mice, tumor volume; assay type: in vivo; settings: 500 μg/day intraperitoneally for 19 days
Method: (§1) Xenografts were generated as described in FIG. 3A-B and Example 3 except where noted. Each animal had two xenografts, one on its right flank and one on the left. In these studies, the effect of two doses of YJB01, 100 μg and 500 μg per animal were evaluated. The doses were administrated intraperitoneally once a day dissolved in phosphate buffered saline (PBS). Control animals were injected with PBS. Tumor volume was determined as described in Example 3. Tumor volume is expressed as mean±SEM.
as §1, with “the” for “FIG. 3A-B and”
Xenografts were generated as described in the Example 3 except that 8 Balb/c nude mice in each group were used in this experiment. Nude mice bearing SW480 xenografts were treated with 500 μg/day of YJB02 for 19 days. The doses were administrated intraperitoneally once a day dissolved in phosphate buffered saline (PBS). Control animals were treated with PBS.
Tumor volume was determined as described in Example 3. Tumor volume was monitored and graphed as set forth in FIG. 9A, and is expressed as mean±SEM.

SW480 tumor cells [2] = assay: Ki-67 staining of xenograft tumor tissue for cell proliferation; assay type: in vivo, nude mice; settings: tumors of mice treated 500 μg/day for 19 days
Method: (§2) Tumor tissue from the mice treated with PBS or YJB02 as described in Example 8 were utilized in this experiment. Cell death was determined by terminal deoxynucleotidyl transferase dUTP nick end labeling (TUNEL) staining sections of paraffin embedded tissues, as previously described (Ouyang, N., Williams, J. L., Tsioulias, G. J., Gao, J., Iatropoulos, M. J., Kopelovich, L., Kashfi, K., and Rigas, B. 2006. Nitric oxide-donating aspirin prevents pancreatic cancer in a hamster tumor model. Cancer Res 66:4503-4511). Cell proliferation was determined by staining sections of paraffin embedded tissues for Ki-67 (Santa Cruz Biotechnology, Calif.) as previously described (Id.)
Tissue slides from control or YJB02 treated tumors were stained with anti-Ki67 antibody (Santa Cruz Biotechnology, Santa Cruz, Calif., US). As shown in the lower panel of FIG. 10, YJB02 inhibited tumor cell proliferation. […] Slides were counter-stained with hematoxylin.

thioredoxin reductase [3] = molecular target: T1, thioredoxin reductase (Rattus norvegicus, UniProt O89049); assay: biochemical
T1 sequence (O89049 1-499): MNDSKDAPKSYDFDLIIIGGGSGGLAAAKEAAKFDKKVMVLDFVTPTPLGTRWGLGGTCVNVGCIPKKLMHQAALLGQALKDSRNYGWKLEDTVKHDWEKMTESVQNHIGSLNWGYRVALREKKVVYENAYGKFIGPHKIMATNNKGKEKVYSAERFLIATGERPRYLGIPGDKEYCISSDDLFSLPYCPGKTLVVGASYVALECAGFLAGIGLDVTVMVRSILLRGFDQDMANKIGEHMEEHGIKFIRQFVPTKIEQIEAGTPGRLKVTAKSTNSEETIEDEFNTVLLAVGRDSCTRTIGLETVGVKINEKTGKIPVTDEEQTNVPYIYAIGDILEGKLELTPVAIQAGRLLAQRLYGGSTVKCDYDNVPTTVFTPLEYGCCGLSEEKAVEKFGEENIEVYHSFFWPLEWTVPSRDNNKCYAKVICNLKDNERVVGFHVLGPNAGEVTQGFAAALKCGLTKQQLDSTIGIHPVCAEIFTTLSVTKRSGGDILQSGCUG
Method: (§5) The activity was determined based on the change in absorbance (ΔA412) per minute (ΔA412/min).

[4] = test system: SW480 human colon cancer cells; assay: In vitro cell viability assay by MTT / cell Titer-Glo, SW480
Method: (§3) 10,000 HT29 or SW480 human colon cancer cells, BxPC-3 human pancreatic cancer cells, and MCF7 and MDA-MB-231 breast cancer cells were obtained from American Type Culture Collection (ATTC), Manassas, Va., and were seeded in separate 96-well plates. After treatment with various concentrations (6.25 μM, 12.5 μM, 25 μM, 50 μM, 100 μM, or 200 μM) of test peptide for 24 h, cells were stained with MTT (3-(4,5-Dimethyl-2-thiazolyl)-2,5-diphenyl-2H-tetrazolium bromide, from Sigma-Aldrich) following the instructions of the manufacturer. Before dissolving MTT in SDS, the HT29 and SW480 cells were photographed using a digital camera connected with a phase-contrast microscope. (FIG. 2A1-8, and FIG. 2B1-6). Cells that are alive convert MTT into formazan in their active mitochondria and appear dark purple; dead cells are not stained by MTT and appear colorless.
(§4) The IC50 is the concentration of the test agent that inhibits cell growth by 50% at 24 hours of exposure. IC50s were determined using the MTT assay or using the cell Titer-Glo method and following the instructions of the manufacturer ([…]). […] (Sun, Y., and Rigas, B., (2008), Cancer Res., 68(20): 8269-8277).
The effect of peptide YJB02 on SW480 colon cancer cells was compared to the effect of peptide YJB02 on the normal human colon epithelial cell line NCM460. […] The viability was determined as described in Example 2.

MCF7 breast cancer cells = settings: read-out: IC50s, MCF7; inhibits cell growth by 50% at 24 hours of exposure; MTT or cell Titer-Glo
Method: as §3, §4

[5] = test system: MDA-MB-231 breast cancer cells; settings: read-out: IC50s, MDA-MB-231; inhibits cell growth by 50% at 24 hours of exposure; MTT or cell Titer-Glo
Method: as §3, §4

[6] = test system: BxPC-3 human pancreatic cancer cells; settings: read-out: IC50s, BxPC3; inhibits cell growth by 50% at 24 hours of exposure; MTT or cell Titer-Glo
Method: as §3, §4

thioredoxin reductase [7] = molecular target: T1, thioredoxin reductase
Method: as §5

SW480 tumor cells [8] = assay: TUNEL staining of xenograft tumor tissue for apoptosis; assay type: in vivo, nude mice; settings: tumors of mice treated 500 μg/day for 19 days
Method: as §2
Slides were stained with TUNEL kit for apoptosis (available from Roche Applied Science, Indianapolis, Ind., US).

For `CC[C@H](C)[C@H](NC(=O)[C@H](CCCCN)NC(=O)[C@@H](NC(=O)[C@H](CCC(N)=O)NC(=O)[C@H](CCCNC(=N)N)NC(=O)[C@@H]1CCCN1C(=O)[C@@H](NC(=O)[C@@H]1CSSC[C@H](NC(=O)[C@@H](NC(=O)CN)[C@@H](C)O)C(=O)N[C@@H](C(C)C)C(=O)N[C@@H](CC(N)=O)C(=O)N[C@@H](C(C)C)C(=O)NCC(=O)N1)[C@@H](C)CC)[C@@H](C)CC)C(=O)N[C@@H](Cc1c[nH]c2ccccc12)C(=O)N[C@@H](Cc1ccccc1)C(=O)N[C@@H](CCC(N)=O)C(=O)N[C@@H](CC(N)=O)C(=O)N[C@@H](CCCNC(=N)N)C(=O)N[C@@H](CCCNC(=N)N)C(=O)N[C@@H](CCSC)C(=O)N[C@@H](CCCCN)C(=O)N[C@@H](Cc1c[nH]c2ccccc12)C(=O)N[C@@H](CCCCN)C(=O)N[C@@H](CCCCN)C(=O)O` [YJB02] (H-GTCVNVGCIPRQIKIWFQNRRMKWKK-OH; disulfide 3-8; N-terminus and C-terminus assumed), the viability at 24 h, 200 μmol/L (in vitro) was 75%, the tumor volume ([1]; day 19, control 635 mm^3) was 207 mm^3 and the “reduction in SW480 tumor growth” value ([1]; vs control) was 67%. For the same molecule, the “Ki67 (+) signals in tumor tissue” value (SW480 tumor cells [2]) was “dramatically decreased”, the IC50 (thioredoxin reductase [3]) was 0.036 µM and the “SW480 cells remained viable” value ([4]; 200 μmol/L, 24-hour treatment) was 20%. It also gave an IC50 ([4]; read-out: IC50s, SW480, inhibits cell growth by 50% at 24 hours of exposure, MTT or cell Titer-Glo) of under 12.5 µM, an IC50 (MCF7 breast cancer cells) of 213 µM and an IC50 [5] of 243 µM. The IC50 [6] was 36 to 76 µM, the “thioredoxin reductase activity, ΔA412/min” value (thioredoxin reductase [7]) was “decreased by YJB02 in a dose dependent manner” and the “TUNEL (+) cells in tumor tissue” value (SW480 tumor cells [8]) was “induced more TUNEL (+) cells than control tumors”.
